Data set [1] in a line: Plasma aztreonam after intraduodenal aztreonam/PEP (HPLC). In kind it is in vivo. Particulars: male, Sprague-Dawley, rat, rats. How it is done: (§1) The abdominal muscle was sutured under the skin. […] Four rats were in each treatment group. […]
Aztreonam solution (containing arginine as a pH adjuster) was mixed with a solution of methylcellulose, and this mixture was added to solutions of glucosamine and sucrose palmitate in water before administration to rats. […] The contents of aztreonam/PEP comprised an individual dosage of 40 mg/kg aztreonam, 400 mg/kg sucrose palmitate, glucosamine in a 1:4 mole ratio of aztreonam to glucosamine, methylcellulose in a 1:0.5 mole ratio of aztreonam to methylcellulose, and arginine in a 1:0.6 mole ratio of aztreonam to arginine. […] Plasma was analyzed by HPLC, and bioavailability was calculated.

Data set [2] in a line: Plasma calcitonin after intraduodenal calcitonin/PEP (ELISA). In kind it is in vivo. Particulars: male, Sprague-Dawley, rat, rats, read-out: Average plasma concentration of Calcitonin. How it is done: as §1
Plasma was analyzed by ELISA according to methods well known in the art.
(In an ELISA, binding on a coated surface is turned into a signal by an enzyme label.)

A short description of data set [3]: Plasma isepamicin after intraduodenal isepamicin/PEP (HPLC). In kind it is in vivo. Particulars: male, Sprague-Dawley, rat, other: intraduodenal, rats. How it is done: as §1
Isepamicin solution was mixed with methylcellulose solution, and the resulting mixture was mixed with solutions of glucosamine and sucrose stearate 16 in water before administration to rats. […] The contents of isepamicin/PEP comprised an individual dosage of 75 mg/kg isepamicin, 400 mg/kg sucrose stearate, glucosamine in a 1:4 mole ratio of isepamicin to glucosamine, and methylcellulose in a 1:0.5 mole ratio of isepamicin to methylcellulose. […] Plasma was analyzed by HPLC, and bioavailability was calculated.

Data set [4] can be described thus: Plasma netilmicin after intraduodenal netilmicin/PEP (HPLC). It counts as in vivo. Particulars: male, Sprague-Dawley, rat, rats. How it is done: as §1
Netilmicin solution was mixed with a solution of methylcellulose, and this mixture was added to solutions of glucosamine and sucrose stearate in water before administration to rats. […] The contents of netilmicin/PEP comprised an individual dosage of 80 mg/kg netilmicin, 400 mg/kg sucrose stearate, glucosamine in a 1:4 mole ratio of netilmicin to glucosamine, and methylcellulose in a 1:0.5 mole ratio of netilmicin to methylcellulose. […] Plasma was analyzed by HPLC, and bioavailability was calculated.

A short description of data set [5]: Plasma teicoplanin after intraduodenal teicoplanin/PEP (HPLC). In kind it is in vivo. The conditions noted are these: rats. How it is done:
as §1
Teicoplanin solution was mixed with a solution of methylcellulose, and this mixture was added to solutions of glucosamine and sucrose stearate in water before administration to rats. […] The contents of teicoplanin/PEP comprised an individual dosage of 64 mg/kg teicoplanin, 400 mg/kg sucrose stearate, glucosamine in a 1:4 mole ratio of teicoplanin to glucosamine, and methylcellulose in a 1:0.5 mole ratio of teicoplanin to methylcellulose. […] Plasma was analyzed by HPLC, and bioavailability was calculated.

For data set [6] the following is noted: diabetic rats, intraduodenal, insulin 50 IU/kg in carrier (100 units).
Description: as §1

Another data set relates to non-diabetic rats. Briefly: Serum glucose after intraduodenal insulin/PEP in non-diabetic rats. In kind it is in vivo. Particulars: insulin 50 IU/kg in carrier (100 units).
Description: as §1

For a further data set, the system named is diabetes induced rats. Briefly: Serum glucose after intraduodenal insulin/PEP in diabetic rats. In kind it is in vivo. Particulars: insulin 50 IU/kg in carrier (100 units).
Description: as §1

The bioavailability is the share of a dose that reaches the circulation, judged against a reference dose that is usually intravenous.

In the case of `C[C@H]1[C@H](NC(=O)/C(=N\OC(C)(C)C(=O)O)c2csc(N)n2)C(=O)N1S(=O)(=O)O` [Aztreonam], the concentration at 60 min in data set [1] (other: intraduodenal, aztreonam/PEP 40 mg/kg aztreonam, 60 min) was 97 µg/mL. The same compound gave a concentration at 90 min in data set [1] (other: intraduodenal, aztreonam/PEP 40 mg/kg aztreonam, 90 min) of 87.9 µg/mL. In data set [1] (other: intraduodenal, aztreonam/PEP 40 mg/kg aztreonam, 120 min), this compound came in with a concentration at 120 min of 89.6 µg/mL. For the same compound, in data set [1] (other: intraduodenal, aztreonam/PEP 40 mg/kg aztreonam, 180 min), the concentration at 180 min was found to be 67 µg/mL. In data set [1] (other: intraduodenal, aztreonam/PEP 40 mg/kg aztreonam, 240 min), this compound gave a concentration at 240 min of 55.2 µg/mL. For the same compound, the concentration at 30 min in data set [1] (other: intraduodenal, aztreonam/PEP (40 mg/kg aztreonam, 400 mg/kg sucrose palmitate, glucosamine, methylcellulose, arginine), 30 min) was determined as 95.4 µg/mL. In addition, the bioavailability in data set [1] (aztreonam/PEP 40 mg/kg aztreonam, read-out: percent bioavailability) came to 91.1 ± 14.6%.
In the case of `CC(C)C[C@H](NC(=O)[C@H](CCCCN)NC(=O)CNC(=O)[C@H](CC(C)C)NC(=O)[C@@H](NC(=O)[C@@H]1CSSC[C@H](N)C(=O)N[C@@H](CO)C(=O)N[C@@H](CC(N)=O)C(=O)N[C@@H](CC(C)C)C(=O)N[C@@H](CO)C(=O)N[C@@H]([C@@H](C)O)C(=O)N1)C(C)C)C(=O)N[C@@H](CO)C(=O)N[C@@H](CCC(N)=O)C(=O)N[C@@H](CCC(=O)O)C(=O)N[C@@H](CC(C)C)C(=O)N[C@@H](Cc1c[nH]cn1)C(=O)N[C@@H](CCCCN)C(=O)N[C@@H](CC(C)C)C(=O)N[C@@H](CCC(N)=O)C(=O)N[C@H](C(=O)N[C@@H](Cc1ccc(O)cc1)C(=O)N1CCC[C@H]1C(=O)N[C@@H](CCCNC(=N)N)C(=O)N[C@H](C(=O)N[C@@H](CC(N)=O)C(=O)N[C@H](C(=O)NCC(=O)N[C@@H](CO)C(=O)NCC(=O)N[C@H](C(=O)N1CCC[C@H]1C(N)=O)[C@@H](C)O)[C@@H](C)O)[C@@H](C)O)[C@@H](C)O` [Calcitonin], the level at 0.5 h in data set [2] (calcitonin/PEP 2 mg/kg calcitonin, 30 min) was 0.00861 µg/mL. The level at 0.75 h in data set [2] (calcitonin/PEP 2 mg/kg calcitonin, 45 min) was 0.0109 µg/mL. Also, the level at 1 h in data set [2] (calcitonin/PEP 2 mg/kg calcitonin, 60 min) worked out at 0.00755 µg/mL. The level at 1.5 h in data set [2] (calcitonin/PEP 2 mg/kg calcitonin, 90 min) came out at 0.00336 µg/mL. Moreover, the level at 2 h in data set [2] (calcitonin/PEP 2 mg/kg calcitonin, 120 min) was determined as 0.00172 µg/mL. Also, the level at 3 h in data set [2] (calcitonin/PEP 2 mg/kg calcitonin, 180 min) stood at 0.00069 µg/mL. The level at 4 h in data set [2] (calcitonin/PEP 2 mg/kg calcitonin, 240 min) was determined as 0.00099 µg/mL. Besides, in data set [2] (calcitonin/PEP (2 mg/kg calcitonin, 40 mg/kg sucrose laurate 16, glucosamine, methylcellulose), 15 min), the level at 0.25 h worked out at 0.00802 µg/mL.
On to `CN[C@@H]1[C@@H](O)[C@@H](O[C@@H]2[C@@H](O)[C@H](O[C@H]3O[C@H](CN)[C@@H](O)[C@H](O)[C@H]3O)[C@@H](N)C[C@H]2NC(=O)[C@@H](O)CN)OC[C@]1(C)O` [Isepamicin], for which, in data set [3] (isepamicin/PEP 75 mg/kg isepamicin, 60 min), the concentration at 60 min came out at 102 µg/mL. Further, the concentration at 120 min in data set [3] (isepamicin/PEP 75 mg/kg isepamicin, 120 min) amounted to 73.6 µg/mL. This compound registered a concentration at 180 min in data set [3] (isepamicin/PEP 75 mg/kg isepamicin, 180 min) of 49.9 µg/mL. Besides, the concentration at 240 min in data set [3] (isepamicin/PEP 75 mg/kg isepamicin, 240 min) was 43.9 µg/mL. The same compound returned a concentration at 360 min in data set [3] (isepamicin/PEP 75 mg/kg isepamicin, 360 min) of 35.8 µg/mL. Moreover, the concentration at 30 min in data set [3] (isepamicin/PEP (75 mg/kg isepamicin, 400 mg/kg sucrose stearate, glucosamine, methylcellulose), 30 min) was 84.2 µg/mL.
`CCN[C@@H]1C[C@H](N)[C@@H](O[C@H]2OC(CN)=CC[C@H]2N)[C@H](O)[C@H]1O[C@H]1OC[C@](C)(O)[C@H](NC)[C@H]1O` [Netilmicin] showed a concentration at 60 min in data set [4] (other: intraduodenal, netilmicin/PEP 80 mg/kg netilmicin, 60 min) of 70.7 µg/mL. For the same compound, the concentration at 120 min in data set [4] (other: intraduodenal, netilmicin/PEP 80 mg/kg netilmicin, 120 min) was 39.3 µg/mL. The concentration at 180 min in data set [4] (other: intraduodenal, netilmicin/PEP 80 mg/kg netilmicin, 180 min) turned out to be 38.9 µg/mL. This compound gave a concentration at 240 min in data set [4] (other: intraduodenal, netilmicin/PEP 80 mg/kg netilmicin, 240 min) of 35.8 µg/mL. For the same compound, in data set [4] (other: intraduodenal, netilmicin/PEP 80 mg/kg netilmicin, 360 min), the concentration at 360 min amounted to 34.8 µg/mL. Also, the concentration at 30 min in data set [4] (other: intraduodenal, netilmicin/PEP (80 mg/kg netilmicin, 400 mg/kg sucrose stearate, glucosamine, methylcellulose), 30 min) is 62.1 µg/mL. Besides, the bioavailability in data set [4] (netilmicin/PEP 80 mg/kg netilmicin, read-out: percent bioavailability) came out at 73%.
As to Teicoplanin, the percent bioavailability in data set [5] (teicoplanin/PEP 64 mg/kg teicoplanin) is given as 35.07%. Also, the “Average plasma concentration Teicoplanin” value in data set [5] (teicoplanin/PEP 64 mg/kg teicoplanin, 60 min) was 9.50 µg/mL; in data set [5] (teicoplanin/PEP 64 mg/kg teicoplanin, 120 min), 10.36 µg/mL; in data set [5] (teicoplanin/PEP 64 mg/kg teicoplanin, 180 min), 12.22 µg/mL; in data set [5] (teicoplanin/PEP 64 mg/kg teicoplanin, 240 min), 11.29 µg/mL; in data set [5] (teicoplanin/PEP (64 mg/kg teicoplanin, 400 mg/kg sucrose stearate, glucosamine, methylcellulose), 30 min), 11.14 µg/mL.
As to “insulin: insulin given with methylcellulose, sucrose laurate 16 and glucosamine (insulin/PEP composition)”, the serum insulin result in data set [6] is listed as “detected”. Further, in the data set with non-diabetic rats, the “hypoglycemic response (serum glucose)” value is “No significant hypoglycemic response”. The “hypoglycemic effect (serum glucose)” value with diabetes induced rats was “significant hypoglycemic effects were observed”.
